Assays:
[1] = biological target: T1, Human neuropeptide Y (NPY-Y1) (Homo sapiens, UniProt P25929); assay: Radioligand binding, human neuropeptide Y NPY-Y1 membranes, FlashPlate, [125I]-PYY; settings: compound at 10 μM; [125I]-PYY, FlashPlate
T1 construct: purchased Perkin Elmer Biosignal
T1 sequence (P25929 1-384): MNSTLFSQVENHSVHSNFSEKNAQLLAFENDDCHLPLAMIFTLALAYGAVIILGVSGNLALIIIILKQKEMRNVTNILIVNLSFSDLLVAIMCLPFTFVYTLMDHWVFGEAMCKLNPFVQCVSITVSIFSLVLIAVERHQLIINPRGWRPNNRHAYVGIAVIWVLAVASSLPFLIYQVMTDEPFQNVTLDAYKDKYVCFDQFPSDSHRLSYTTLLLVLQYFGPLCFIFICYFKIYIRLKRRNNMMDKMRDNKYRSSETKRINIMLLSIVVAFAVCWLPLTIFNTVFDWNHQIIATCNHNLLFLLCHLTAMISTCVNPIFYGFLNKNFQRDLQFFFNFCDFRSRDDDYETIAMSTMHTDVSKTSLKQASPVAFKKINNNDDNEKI
In short: (§1)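 Cloned human receptor membranes were coated onto FlashPlate wells and incubated with radioligand and compound (added from a 0.5 mM DMSO daughter plate) for 1 hour at room temperature in the dark. Scintillation counting gave percent inhibition, with DMSO defining total and reference ligand defining non-specific binding.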

Human melanocortin (MC5) = biological target: T2, Human melanocortin (MC5) (Homo sapiens, UniProt P33032); assay: Radioligand binding, human melanocortin MC5 membranes, FlashPlate, [125I]-NDP-αMSH; settings: compound at 10 μM; [125I]-NDP-αMSH, FlashPlate
T2 construct: purchased Perkin Elmer Biosignal
T2 sequence (P33032 whole entry): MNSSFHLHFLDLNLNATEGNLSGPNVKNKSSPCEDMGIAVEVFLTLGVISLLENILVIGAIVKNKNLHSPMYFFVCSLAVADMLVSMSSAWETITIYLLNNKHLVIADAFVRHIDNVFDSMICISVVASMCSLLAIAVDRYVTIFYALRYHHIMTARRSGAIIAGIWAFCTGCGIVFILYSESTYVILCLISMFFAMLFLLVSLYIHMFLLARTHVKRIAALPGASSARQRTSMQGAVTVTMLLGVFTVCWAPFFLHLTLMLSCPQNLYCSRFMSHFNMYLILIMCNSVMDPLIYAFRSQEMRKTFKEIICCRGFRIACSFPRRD
In short: as §1

Human Melanocortin (MC4) = biological target: T3, Human Melanocortin (MC4) (Homo sapiens, UniProt P32245); assay: Radioligand binding, human melanocortin MC4 membranes, FlashPlate, [125I]-NDP-αMSH; settings: compound at 10 μM; [125I]-NDP-αMSH, FlashPlate
T3 construct: purchased Perkin Elmer Biosignal
T3 sequence (P32245 whole entry): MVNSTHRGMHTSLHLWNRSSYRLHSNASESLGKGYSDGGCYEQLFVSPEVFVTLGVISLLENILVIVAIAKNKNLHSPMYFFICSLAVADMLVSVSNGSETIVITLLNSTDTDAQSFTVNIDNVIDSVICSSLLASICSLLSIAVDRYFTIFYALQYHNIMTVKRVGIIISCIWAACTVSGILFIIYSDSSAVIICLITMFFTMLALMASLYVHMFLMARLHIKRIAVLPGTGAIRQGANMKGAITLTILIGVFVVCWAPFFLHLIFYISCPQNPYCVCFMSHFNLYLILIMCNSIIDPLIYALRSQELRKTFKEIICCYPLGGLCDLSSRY
In short: as §1

Human κ-Opioid (KOP) = biological target: T4, Human κ-Opioid (KOP) (Homo sapiens, UniProt P41145); assay: Radioligand binding, human κ-opioid (KOP) membranes, filtration, [3H]-Diprenorphine; settings: compound at 10 μM; [3H]-Diprenorphine, filtration
T4 construct: purchased Perkin Elmer Biosignal
T4 sequence (P41145 whole entry): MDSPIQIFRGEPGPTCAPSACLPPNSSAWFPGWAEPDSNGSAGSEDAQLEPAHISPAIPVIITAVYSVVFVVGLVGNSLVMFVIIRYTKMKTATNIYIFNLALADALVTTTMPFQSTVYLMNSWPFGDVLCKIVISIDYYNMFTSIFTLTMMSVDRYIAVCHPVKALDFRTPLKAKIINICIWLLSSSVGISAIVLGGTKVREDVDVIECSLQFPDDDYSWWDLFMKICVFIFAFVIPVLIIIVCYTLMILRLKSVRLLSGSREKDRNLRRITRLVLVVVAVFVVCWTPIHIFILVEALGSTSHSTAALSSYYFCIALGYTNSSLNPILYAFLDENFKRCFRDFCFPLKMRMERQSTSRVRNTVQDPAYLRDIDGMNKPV
In short: (§2)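 Membranes from cloned human receptors were incubated with compound and radioligand for 1 hour at room temperature. Bound ligand was collected on 0.3% PEI-soaked filters, washed with cold 50 mM Tris-HCl pH 7.4, and counted by scintillation. Percent inhibition was computed against DMSO totals and reference-ligand nonspecific wells.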

Human Melanocortin (MC3) = biological target: T5, Human Melanocortin (MC3) (Homo sapiens, UniProt P41968); assay: Radioligand binding, human melanocortin MC3 membranes, FlashPlate, [125I]-NDP-αMSH; settings: compound at 10 μM; [125I]-NDP-αMSH, FlashPlate
T5 construct: purchased Perkin Elmer Biosignal
T5 sequence (P41968 whole entry): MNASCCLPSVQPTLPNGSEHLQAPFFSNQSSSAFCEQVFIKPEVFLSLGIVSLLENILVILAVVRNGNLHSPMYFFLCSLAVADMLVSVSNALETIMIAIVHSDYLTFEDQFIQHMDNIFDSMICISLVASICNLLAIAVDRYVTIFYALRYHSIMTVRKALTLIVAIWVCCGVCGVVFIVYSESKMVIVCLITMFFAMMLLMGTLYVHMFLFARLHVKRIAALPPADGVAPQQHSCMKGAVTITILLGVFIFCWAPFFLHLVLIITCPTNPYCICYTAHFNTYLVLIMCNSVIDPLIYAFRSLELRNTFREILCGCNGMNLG
In short: as §1

Human neurokinin (NK1) = biological target: T6, Human neurokinin (NK1) (Homo sapiens, UniProt P25103); assay: Radioligand binding, human neurokinin NK1 membranes, filtration, [125I]-Substance P; settings: compound at 10 μM; [125I]-Substance P, filtration
T6 construct: purchased Perkin Elmer Biosignal
T6 sequence (P25103 whole entry): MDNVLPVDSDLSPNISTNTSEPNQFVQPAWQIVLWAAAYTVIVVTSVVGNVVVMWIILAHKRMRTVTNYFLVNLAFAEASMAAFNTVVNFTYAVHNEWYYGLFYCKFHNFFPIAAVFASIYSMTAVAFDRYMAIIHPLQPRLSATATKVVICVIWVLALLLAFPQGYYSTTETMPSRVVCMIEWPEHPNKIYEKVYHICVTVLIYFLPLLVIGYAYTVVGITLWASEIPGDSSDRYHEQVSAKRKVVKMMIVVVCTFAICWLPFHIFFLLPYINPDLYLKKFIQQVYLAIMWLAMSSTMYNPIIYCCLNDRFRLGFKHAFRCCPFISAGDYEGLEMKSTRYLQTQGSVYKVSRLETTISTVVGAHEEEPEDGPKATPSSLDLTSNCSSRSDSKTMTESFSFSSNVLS
In short: as §2

Human δ-opioid (DOP) = biological target: T7, Human δ-opioid (DOP) (Homo sapiens, UniProt P41143); assay: Radioligand binding, human δ-opioid (DOP) membranes, FlashPlate, [3H]-Bremazocine; settings: compound at 10 μM; [3H]-Bremazocine, FlashPlate
T7 construct: purchased Perkin Elmer Biosignal
T7 sequence (P41143 whole entry): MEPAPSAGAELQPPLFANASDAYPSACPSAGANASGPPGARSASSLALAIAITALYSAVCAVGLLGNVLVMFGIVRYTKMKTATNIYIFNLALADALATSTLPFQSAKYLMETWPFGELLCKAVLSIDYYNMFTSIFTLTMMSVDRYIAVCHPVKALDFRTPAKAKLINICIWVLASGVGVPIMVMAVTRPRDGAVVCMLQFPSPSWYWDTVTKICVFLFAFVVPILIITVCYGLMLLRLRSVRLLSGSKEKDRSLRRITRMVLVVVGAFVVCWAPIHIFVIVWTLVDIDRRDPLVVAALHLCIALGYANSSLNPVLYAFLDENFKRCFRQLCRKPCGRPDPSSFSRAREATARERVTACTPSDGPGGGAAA
In short: as §1

[2] = biological target: T8, Human melanin-concentrating hormone (MCH1) (Homo sapiens, UniProt Q99705); assay: Radioligand binding, human melanin-concentrating hormone MCH1 membranes, FlashPlate, [125I]-S36057; settings: compound at 10 μM; [125I]-S36057, FlashPlate
T8 construct: purchased Perkin Elmer Biosignal
T8 sequence (Q99705 whole entry): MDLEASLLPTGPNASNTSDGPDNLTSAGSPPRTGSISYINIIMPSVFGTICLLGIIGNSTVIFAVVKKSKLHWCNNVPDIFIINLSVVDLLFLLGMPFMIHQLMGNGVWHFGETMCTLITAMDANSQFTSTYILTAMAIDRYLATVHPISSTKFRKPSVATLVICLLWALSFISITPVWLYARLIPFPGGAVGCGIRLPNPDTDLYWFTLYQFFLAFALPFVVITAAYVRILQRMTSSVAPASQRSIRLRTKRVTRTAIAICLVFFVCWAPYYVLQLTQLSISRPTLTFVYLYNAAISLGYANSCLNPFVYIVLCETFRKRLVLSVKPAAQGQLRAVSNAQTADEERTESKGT
In short: as §1

Mouse urotensin (mUR2) = biological target: T9, Mouse urotensin (mUR2) (Mus musculus, UniProt Q8VIH9); assay: Radioligand binding, mouse urotensin mUR2 membranes, FlashPlate, [125I]-Urotensin II; settings: compound at 10 μM; [125I]-Urotensin II, FlashPlate
T9 construct: purchased Perkin Elmer Biosignal
T9 sequence (Q8VIH9 1-385): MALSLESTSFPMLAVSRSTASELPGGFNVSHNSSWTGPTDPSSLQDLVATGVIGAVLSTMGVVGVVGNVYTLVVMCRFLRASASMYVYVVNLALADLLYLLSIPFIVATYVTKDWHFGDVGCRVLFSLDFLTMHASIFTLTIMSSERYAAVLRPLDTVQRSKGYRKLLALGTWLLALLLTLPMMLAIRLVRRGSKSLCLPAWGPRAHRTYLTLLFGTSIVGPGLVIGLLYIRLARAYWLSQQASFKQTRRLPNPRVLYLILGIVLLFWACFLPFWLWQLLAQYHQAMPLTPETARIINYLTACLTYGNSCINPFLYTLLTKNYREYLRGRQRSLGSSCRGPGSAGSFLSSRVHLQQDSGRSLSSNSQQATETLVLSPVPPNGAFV
In short: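 Cloned mouse urotensin (mUR2) receptor membranes from Perkin Elmer Biosignal were immobilized in FlashPlate microplates using a proprietary coating. Each well got 19.5 μl buffer, then 0.5 μl of DMSO, reference ligand, or compound. Adding 5 μl of [125I]-Urotensin II, diluted to 5× final concentration in binding buffer, started binding. Plates were sealed with TopSeal-A and incubated 1 hour at room temperature in the dark. Wells were counted for 30 seconds each on a TopCount after a 60-second delay, and percentage inhibition was calculated.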

Human opioid (ORL1) = biological target: T10, Human opioid (ORL1) (Homo sapiens, UniProt P41146); assay: Radioligand binding, human opioid ORL1 membranes, FlashPlate, [125I]-Nociceptin; settings: compound at 10 μM; [125I]-Nociceptin, FlashPlate
T10 construct: purchased Perkin Elmer Biosignal
T10 sequence (P41146 whole entry): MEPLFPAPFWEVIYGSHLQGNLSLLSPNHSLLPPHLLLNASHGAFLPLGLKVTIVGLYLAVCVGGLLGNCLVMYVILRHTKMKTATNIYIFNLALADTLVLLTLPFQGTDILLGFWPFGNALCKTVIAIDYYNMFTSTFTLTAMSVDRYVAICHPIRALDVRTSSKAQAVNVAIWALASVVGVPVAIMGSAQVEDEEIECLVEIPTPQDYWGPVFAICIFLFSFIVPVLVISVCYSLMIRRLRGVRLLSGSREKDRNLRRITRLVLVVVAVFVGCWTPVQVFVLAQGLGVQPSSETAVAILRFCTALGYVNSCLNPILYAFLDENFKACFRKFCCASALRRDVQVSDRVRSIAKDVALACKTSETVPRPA
In short: as §1

Human μ-opioid (MOP) = biological target: T11, Human μ-opioid (MOP) (Homo sapiens, UniProt P35372); assay: Radioligand binding, human μ-opioid (MOP) membranes, FlashPlate, [3H]-Naloxone; settings: compound at 10 μM; [3H]-Naloxone, FlashPlate
T11 construct: purchased Perkin Elmer Biosignal
T11 sequence (P35372 whole entry): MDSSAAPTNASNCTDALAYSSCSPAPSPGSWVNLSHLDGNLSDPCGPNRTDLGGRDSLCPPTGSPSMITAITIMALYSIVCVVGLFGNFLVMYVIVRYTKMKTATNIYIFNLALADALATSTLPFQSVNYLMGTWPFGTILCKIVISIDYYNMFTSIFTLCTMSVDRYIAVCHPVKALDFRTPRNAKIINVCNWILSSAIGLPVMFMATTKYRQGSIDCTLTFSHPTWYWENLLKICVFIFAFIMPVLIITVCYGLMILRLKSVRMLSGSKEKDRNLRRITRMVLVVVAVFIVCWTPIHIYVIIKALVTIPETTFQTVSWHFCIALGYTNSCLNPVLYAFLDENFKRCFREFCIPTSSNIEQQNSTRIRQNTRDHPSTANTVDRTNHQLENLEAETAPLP
In short: as §1

Structure (SMILES) | A9: inhibition of radioligand binding [1] | A5: inhibition of radioligand binding (Human melanocortin (MC5)) | A4: inhibition of radioligand binding (Human Melanocortin (MC4)) | A2: inhibition of radioligand binding (Human κ-Opioid (KOP)) | A3: inhibition of radioligand binding (Human Melanocortin (MC3)) | A8: inhibition of radioligand binding (Human neurokinin (NK1)) | A1: inhibition of radioligand binding (Human δ-opioid (DOP)) | A6: inhibition of radioligand binding [2] | A11: inhibition of radioligand binding (Mouse urotensin (mUR2)) | A10: inhibition of radioligand binding (Human opioid (ORL1)) | A7: inhibition of radioligand binding (Human μ-opioid (MOP))
COCC1OC(OCc2ccc(Cl)cc2)C(NC(=O)CCCNC(=N)N)C(OCc2ccc3ccccc3c2)C1O (stereo not drawn) [compound 213] | − (“−” indicates less than 50% inhibition at 10 μM) | + (“+” indicates greater than 50% inhibition at 10 μM) | + (“+” indicates greater than 50% inhibition at 10 μM) | + (“+” indicates greater than 50% inhibition at 10 μM) | − (“−” indicates less than 50% inhibition at 10 μM) | + (“+” indicates greater than 50% inhibition at 10 μM) | − (“−” indicates less than 50% inhibition at 10 μM) | + (“+” indicates greater than 50% inhibition at 10 μM) | − (“−” indicates less than 50% inhibition at 10 μM) | + (“+” indicates greater than 50% inhibition at 10 μM) | − (“−” indicates less than 50% inhibition at 10 μM)
COCC1OC(OCCc2ccccc2)C(NC(=O)CN)C(OCc2ccccc2)C1O (stereo not drawn) [compound 214] | − (“−” indicates less than 50% inhibition at 10 μM) | − (“−” indicates less than 50% inhibition at 10 μM) | − (“−” indicates less than 50% inhibition at 10 μM) | − (“−” indicates less than 50% inhibition at 10 μM) | − (“−” indicates less than 50% inhibition at 10 μM) | + (“+” indicates greater than 50% inhibition at 10 μM) | − (“−” indicates less than 50% inhibition at 10 μM) | − (“−” indicates less than 50% inhibition at 10 μM) | − (“−” indicates less than 50% inhibition at 10 μM) | − (“−” indicates less than 50% inhibition at 10 μM) | − (“−” indicates less than 50% inhibition at 10 μM)
COCC1OC(OCCc2ccccc2)C(NC(=O)CNC(=N)N)C(OCc2ccccc2)C1O (stereo not drawn) [compound 215] | − (“−” indicates less than 50% inhibition at 10 μM) | + (“+” indicates greater than 50% inhibition at 10 μM) | − (“−” indicates less than 50% inhibition at 10 μM) | − (“−” indicates less than 50% inhibition at 10 μM) | − (“−” indicates less than 50% inhibition at 10 μM) | + (“+” indicates greater than 50% inhibition at 10 μM) | − (“−” indicates less than 50% inhibition at 10 μM) | − (“−” indicates less than 50% inhibition at 10 μM) | − (“−” indicates less than 50% inhibition at 10 μM) | − (“−” indicates less than 50% inhibition at 10 μM) | − (“−” indicates less than 50% inhibition at 10 μM)
COCC1OC(OCCc2ccccc2)C(NC(=O)CCN)C(OCc2ccccc2)C1O (stereo not drawn) [compound 216] | − (“−” indicates less than 50% inhibition at 10 μM) | − (“−” indicates less than 50% inhibition at 10 μM) | − (“−” indicates less than 50% inhibition at 10 μM) | − (“−” indicates less than 50% inhibition at 10 μM) | − (“−” indicates less than 50% inhibition at 10 μM) | + (“+” indicates greater than 50% inhibition at 10 μM) | − (“−” indicates less than 50% inhibition at 10 μM) | − (“−” indicates less than 50% inhibition at 10 μM) | − (“−” indicates less than 50% inhibition at 10 μM) | − (“−” indicates less than 50% inhibition at 10 μM) | − (“−” indicates less than 50% inhibition at 10 μM)
COCC1OC(OCCc2ccccc2)C(NC(=O)CCCN)C(OCc2ccccc2)C1O (stereo not drawn) [compound 217] | − (“−” indicates less than 50% inhibition at 10 μM) | − (“−” indicates less than 50% inhibition at 10 μM) | − (“−” indicates less than 50% inhibition at 10 μM) | − (“−” indicates less than 50% inhibition at 10 μM) | − (“−” indicates less than 50% inhibition at 10 μM) | + (“+” indicates greater than 50% inhibition at 10 μM) | − (“−” indicates less than 50% inhibition at 10 μM) | − (“−” indicates less than 50% inhibition at 10 μM) | − (“−” indicates less than 50% inhibition at 10 μM) | − (“−” indicates less than 50% inhibition at 10 μM) | − (“−” indicates less than 50% inhibition at 10 μM)
COCC1OC(OCCc2ccccc2)C(NC(=O)CCCNC(=N)N)C(OCc2ccccc2)C1O (stereo not drawn) [compound 218] | − (“−” indicates less than 50% inhibition at 10 μM) | − (“−” indicates less than 50% inhibition at 10 μM) | − (“−” indicates less than 50% inhibition at 10 μM) | − (“−” indicates less than 50% inhibition at 10 μM) | − (“−” indicates less than 50% inhibition at 10 μM) | + (“+” indicates greater than 50% inhibition at 10 μM) | − (“−” indicates less than 50% inhibition at 10 μM) | − (“−” indicates less than 50% inhibition at 10 μM) | − (“−” indicates less than 50% inhibition at 10 μM) | − (“−” indicates less than 50% inhibition at 10 μM) | − (“−” indicates less than 50% inhibition at 10 μM)
